“Also recorded” adds a separate entry of the source.
How the values were obtained:
Assay type in all cases: cell-based
[1] = tested on: FGF-1-induced differentiation of human subcutaneous preadipocytes; assay: PLC inhibition of FGF-1-induced differentiation (G3PDH activity); conditions: inhibitor present during replication phase, differentiation phase or both, SFM including rosiglitazone
Method: Human subcutaneous preadipocytes were isolated and subcultured in SCM in the presence and absence of FGF-1 with and without the PLC inhibitor U-73122 (Calbiochem). Cells were then allowed to reach confluence and differentiated using the standard chemically-modified SFM including rosiglitazone in the presence and absence of FGF1 with and without U-73122. Differentiation was assessed by G3PDH activity.

[2] = tested on: human preadipocytes (subcutaneous and omental); assay: Preadipocyte proliferation assay (formazan/MTS colorimetric assay); conditions: for proliferation of human preadipocytes in response to growth factor: SCM + growth factors at 1 ng/mL for 48 hrs, relative to SCM control, MTS assay
Method: Subcutaneous and omental preadipocytes and human skin fibroblasts are plated separately at about 1×10^3 cells/well (subconfluent) in 96-well plates in DMEM/Ham's F12 1:1 plus 10% FCS (PA growth medium) and allowed to adhere at 37° C., 5% CO2 for 16-20 hrs. The medium is then changed to EC growth medium which is conditioned (see above) by exposure to either confluent subcutaneous or omental MVEC, human skin fibroblasts (HSF), or wells containing no cells (blank control) (each treatment is done in quadruplicate). In separate experiments subcutaneous and omental PAs are plated as above and subsequently treated with either S MVEC, O MVEC, human dermal EC(CADMEC) conditioned media, fresh EC growth medium, or blank control. After 48 hrs, preadipocyte cell number is assessed using a formazan colorimetric assay (Promega). The water soluble tetrazolium salt 3-(4,5-dimethylthiazol-2-yl)-5-(3-carboxymethoxyphenyl)-2-(4-sulfophenyl)-2H-tetrazolium (MTS) is added to each well at a concentration of 200 μg/mL. After incubation at 37° C. for 4 hrs, absorbance at 490 nm is measured using a Bio-Rad 3550 microplate reader. The validity of this assay is tested in two ways; 1) preadipocytes were plated at 250; 500; 1000; 2000; 4000 cells per well (in quadruplicate) and absorbance is measured at 490 nm; 2) after measurement at A490 nm the cells are subsequently stained with propidium iodide and direct cell counts carried out using fluorescence microscopy.
Preadipocytes were isolated and plated in 96-well plates at 500 cells/well (sub-confluent) in serum containing medium for 12-18 hrs to allow adherence. Cells were then incubated in SCM+growth factors at 1 ng/mL for 48 hrs and a MTS proliferation assay (Promega) was performed.

[3] = tested on: subcutaneous human preadipocytes gene expression; assay: Microarray analysis of human preadipocyte gene expression (Affymetrix); conditions: confluent preadipocytes in SCM+FGF1 vs SCM; change of at least 50% (CV<5%)
Method: Total RNA was isolated from confluent subcutaneous human preadipocytes isolated and grown in either SCM (control) or SCM+FGF1. cRNA was prepared and hybridized to chips and subsequently analyzed using the Affymetrix® system. Each treatment was represented by duplicate samples and two independent experiments were performed. Gene expression was considered to be influenced by FGF-1 if expression was consistently (CV<5%) increased or reduced by at least 50%.

[4] = tested on: human omental and subcutaneous preadipocytes; assay: Differentiation of human preadipocytes in serum-containing medium (cytoplasmic lipid accumulation); conditions: subcultured in SCM+FGF-1, differentiated in SCM plus insulin and (days 1-3) dexamethasone and rosiglitazone; vs SCM alone
Text: A standard requirement of human preadipocyte differentiation in vitro is the obligatory withdrawal of serum. This contrasts with the murine adipocyte cell lines (e.g., 3T3-L1) that have high differentiation potential in SCM. It is assumed that the culture system developed for the human cells either induces down-regulation of factors necessary for differentiation, or promotes the expression of anti-differentiative factors (or both). In these experiments human omental and subcutaneous preadipocytes were isolated and subcultured in the presence of FGF-1. Cells were then differentiated in SCM plus insulin and (days 1-3) dexamethasone and rosiglitazone.

PLCγ2 = assay: PLCγ expression in human preadipocytes (indirect immunofluorescence, Western blot); conditions: grown to confluence in SCM + FGF-1 vs SCM alone; immunofluorescence and Western blot
Method: Expression of phospholipase Cγ2 (PLCγ2) protein is analyzed using Western blotting with immunofluorescent labeling procedures using a monoclonal anti-PLCγ2 antibody (Santa Cruz sc-5283).
Human preadipocytes were cultured in SCM+/−FGF-1 in 24-well plates. PLCγ expression was examined by indirect immuno-fluorescence. Non-immune primary and secondary antibody-only controls gave no staining.

[5] = tested on: human preadipocytes (omental and subcutaneous); assay: Preadipocyte differentiation assessed by G3PDH activity; conditions: for adipogenic effect of FGF present during replication and/or differentiation (combination treatments): SCM +/- FGF during replication, SFM+rosiglitazone +/- FGF during differentiation, G3PDH activity; for preadipocyte differentiation / adipogenic effect (summary statements): human preadipocytes cultured with the growth factor; for differentiation of human preadipocytes after exposure to growth factor or MVEC-conditioned medium during subculture: subcultured up to 2 months with growth factor or EC-DMEM, differentiated in serum-free medium including 0.10M Rosiglitazone, G3PDH assay at day 21
Method: Activity is assessed as previously described (Adams et al. J Clin Invest 100: 3149-53 1998) (Hutley et al in Primary Mesenchymal Cells 1st ed. Kluwer Academic 5: 173-87 2001).
For differentiation experiments, preadipocytes were isolated and subcultured in endothelial cell-conditioned medium (EC-DMEM) or in the presence of growth factor for up to 2 months and then allowed to reach confluence in 6-well plates. Cells were then differentiated in serum-free, chemically modified differentiation medium including 0.10M Rosiglitazone. Differentiation was assessed at day 21 using a standard G3PDH assay.
Human omental and subcutaneous preadipocytes were isolated and subcultured in SCM in the presence and absence of FGF-1 or FGF-2. Upon reaching confluence, the cells were differentiated in standard chemically modified SFM+rosiglitazone in the presence and absence of FGF-1 or FGF-2. Differentiation was assessed by G3PDH activity. […] Presence throughout both processes was additive.

Row | Molecule | FGF-1-induced differentiation in the presence of PLC inhibitor [1] | proliferation of human preadipocytes in response to growth factor [2] | preadipocyte growth and replication (summary statements) ([2]; human preadipocytes cultured with the growth factor) | C/EBPα gene expression [3] | FGFR-1 gene expression [3] | FGFR-2 gene expression [3] | FGFR-3 gene expression [3] | PLCγ2 gene expression [3] | PPARγ gene expression [3] | differentiation in the presence of serum (cytoplasmic lipid accumulation) [4] | PLCγ2 protein expression in human preadipocytes (PLCγ2) | differentiation potential of preadipocytes grown with purified FGF-1 ([5]; FGF-1 present from the time of isolation, compared with absence of FGF-1 or other MVEC-derived factors, data not shown) | adipogenic effect of FGF present during replication and/or differentiation (combination treatments) [5] | preadipocyte differentiation / adipogenic effect (summary statements) [5] | differentiation of human preadipocytes after exposure to growth factor or MVEC-conditioned medium during subculture [5]
1 | COc1ccc2c(c1)CC[C@@H]1[C@@H]2CC[C@]2(C)[C@@H](NCCCCCCN3C(=O)C=CC3=O)CC[C@@H]12 [U-73122] | significantly impaired | – | – | – | – | – | – | – | – | – | – | – | – | – | –
2 | FGF-1: acidic fibroblast growth factor (aFGF), also known as FGF-1 | – | marked increase in proliferation | markedly promoted their growth and replication; also recorded: promotes human preadipocyte replication | upregulation | Up-regulation | Up-regulation | down-regulation | Increased expression | upregulation | significant differentiation | increased | similar, but not additive, increase in differentiation potential | adipogenic if present either during replication or during differentiation; also recorded: greater adipogenic effect than FGF-2 | significant positive effect on the differentiation; also recorded: dramatically increases potential for subsequent differentiation | more pronounced effect than FGF-2; also recorded: marked increase in differentiation
3 | FGF-2: basic FGF (also known as FGF-2) | – | marked increase in proliferation | – | – | – | – | – | – | – | – | – | – | adipogenic if present either during replication or during differentiation | pro-adipogenic effect | greater that the effect seen with IGF-1; also recorded: marked increase in differentiation

Source: US20140221455A1, “DIFFERENTIATION MODULATING AGENTS AND USES THEREFOR” (Verva Pharmaceuticals, Inc., priority 2002, published 2014)
